Source: patent publication US9175283B2, “Use polysaccharides for promotion of enzymatic activity” (Genzyme Corporation, priority 2006, dated 2015)

Tested on: sialidase, β-galactosidase, and β-hexosaminidase
Test: Promotion of Target Enzyme activity: oligosaccharide modification of column-bound GCR substrate, FACE assay
Format: biochemical
Settings: pH 5.7; for % Modification (FACE Assay): additive at 10%, sialidase 210, β-galactosidase 33, β-hexosaminidase 2500 U/L sv, approx. 24 hours, room temperature; for Promotion of enzymatic activity of the Target Enzymes versus no additive (in words): additive concentrations of Table 9
From the text: The FACE assay is a preferred method of monitoring the enzymatic activity of the oligosaccharide/polysaccharide enzymes (such as the Target Enzymes in certain Examples herein) by determining the extent of modification of a substrate (including, but not limited to, a protein, glycoprotein or oligosaccharide) of a Target Enzyme(s). Using a FACE assay, a higher FACE number is indicative of a greater degree of modification and a greater degree of Target Enzyme(s) activity. The FACE assays are known in the art.
In the Examples herein, when the Target Enzymes were sialidase, β-galactosidase, and β-hexosaminidase, a FACE assay was used to determine the percentage of modified oligosaccharide species in the GCR substrate. Specifically, GCR was treated with N-glycanase (approximately 8 U of N-glycanase per 40 μg GCR) to release intact N-linked oligosaccharide chains. The released oligosaccharides were then labeled with the fluorophore: ANTS (8-aminonapthalene-1,3,6-trisulfonic acid and separated on oligosaccharide profiling gel (Glyko®/Prozyme®, San Leandro, Calif.) as per the manufacturers instructions. A dextran reference ladder standard (Glyko®)/Prozyme®, San Leandro, Calif.) was also run on the gel along with reference oligosaccharides, GlcNAc2(+Fuc)Man3 and GlcNAc2(-Fuc)Man3, Glyko®/Prozyme®, San Leandro, Calif.). Bands on the gel were then quantified by scanning the gel for fluorescence using a SE2000 imager system with fluorescence imaging software (Glyko®/Prozyme®, San Leandro, Calif.).
The ratio (%) of the fluorescent intensity of the bands representing two core structures, GlcNAc2(Fuc)Man3 and GlcNAc2Man3 (core structures), to the total intensity of bands with mobility ≦GlcNac2Man3 in a given lane provided the percentage of modified GCR. Since GCR acts as a substrate for the three Target Enzymes, sialidase, β-galactosidase, and β-hexosaminidase, the FACE results correlate to the activity of the Target Enzymes against GCR. For GCR, the FACE values can range from about 0 to about 100%, about 3% to about 90% and about 5% to about 85%.
HES was prepared as a 20% (w/v) stock solution by dissolving solid HES into buffer of the appropriate pH. For this Example, 100 mM sodium citrate, 5 mM calcium chloride, pH 5.7 buffer was used. The 20% […] stock solution was used to make a final concentration of 5% w/L sv HES in the Target Enzyme cocktails. […]
Target Enzyme cocktails containing three Target Enzymes were made by combining sialidase (210 U/L sv), β-galactosidase (33 U/L sv), β-hexosaminidase (2500 U/L sv), and either Hmxl (14 mL/L sv) or HES (5% w/L sv). […] The enzymatic activity of GCR is measured using standard assays (see, e.g., U.S. Pat. No. 6,451,600). […]

## OCC(O)CO [Glycerol, glycerol]
  % Modification (FACE Assay): 34.2%
  Promotion of enzymatic activity of the Target Enzymes versus no additive (in words): showed a diminution of Target Enzyme promotion

## CC(O)CO (stereo not shown) [Propylene glycol, propylene glycol]
  % Modification (FACE Assay): 51.1%
  Promotion of enzymatic activity of the Target Enzymes versus no additive (in words): did not show Target Enzyme promotion
